According to US6335347B1, “Ethyl 4-(8-chloro-5,6-dihydro-11 H-benzo[5,6]cyclohepta[1,2-b]pyridin-11-ylidene)-1-piperidene carboxylate polymorph” (Schering Corporation, priority 1997, dated 2002):

Test system: monkey model
Test: Antihistaminic activity in a monkey model

## CCOC(=O)N1CCC(=C2c3ccc(Cl)cc3CCc3cccnc32)CC1 [polymorph form 2 loratadine, ethyl 4-(8-chloro-5,6,-dihydro-11H-benzo[5,6]cyclohepta[1,2-b]pyridin-11-ylidene)-1-piperidene carboxylate]
  Antihistaminic activity: demonstrated
